Measured values as given in US9056111B1, “Selective efflux inhibitors and related pharmaceutical compositions and methods of treatment” (STC.UNM, priority 2011, dated 2015).
Values after ≈ are worked out from the molar mass of the structure shown. “Also recorded” adds a separate entry of the source.

Columns and labels:
[1] = tested on: ABCG2 over-expressing Igrov1/T8 tumors; test: ABCG2 resistant Igrov1/T8 tumor xenograft, combination with topotecan; assay type: in vivo, CB-17 SCID mice; conditions: for tumor size, combination of TPT and inhibitor: 150 nM TPT + 100 nM SID 88095709 (1) or 500 nM SID 85752814 (7), up to 96 hr
Protocol: Specific-pathogen-free adult CB-17 female SCID mice (5-6 weeks of age) weighing 20-25 g, are purchased. Briefly, ABCG2 over-expressing Igrov1/T8 cells are injected (5×10^6 cells/mouse). Prior to injection, Igrov1/T8 cells are maintained in topotecan in order to assure continuous expression of ABCG2. Tumors are allowed to grow for 3-4 weeks or until tumor volumes are greater than ˜100 cubic millimeters, at which time they are stratified into treatment groups. Treatment is administered and we observe the size of the tumor and weight of the mouse over a 7 day period. At the end of 7 days, we: 1) sacrifice the animal; 2) measure and weigh the tumor (if present); 3) analyze the histology of the tumor as well as other organs for evidence of toxicity; and 4) measure the expression of ABCG2 receptors on the tumor to determine if in vivo growth has altered ABCG2 expression. In our initial studies, we have generally observed high survival at 4 weeks (>90%) which escalates rapidly with near 100% mortality by 6 weeks. This approach is well described elsewhere.^9
Tumor-bearing mice were injected with either 150 nM TPT, 100 nM SID 88095709 (probe resupply), or 500 nM SID 85752814 (original SMR hit).
Igrov1/T8 cells were injected into the hind limbs of CB-17 SCID mice at a concentration of 1×10^7 cells in 200 μL, n of 3 per condition. The tumor was grown until the volume was in the range of 75 mm^3 to 250 mm^3. […] Injections were repeated daily and the size of the tumor was determined as a fraction of the starting size. After four days the mice were sacrificed and any recurring tumor was verified by light microscopy examination of histological sections. Mice were studied and maintained in accordance with guidelines of our Institutional Animal Research Committee at UNM HSC.

[2] = tested on: ABCB1 over-expressing Jurkat-DNR cells; test: Chemoreversal assay: potentiation of daunorubicin (DNR) killing; assay type: cell-based; conditions: constant 100 nM DNR, varied inhibitor dose, read-out: CR50 ABCB1
Protocol: (§1) Cells (ABCB1, Jurkat-DNR or ABCG2 Ig-MXP3) are incubated with the test compound (3 order of magnitude concentration range) over a 3-day and 7-day period in the presence of the inhibitor and chemotherapeutic (ABCB1, DNR or ABCG2 MTX), such that a cell concentration of at least 1×10^5 cells/mL is maintained. Cell viability is determined by trypan blue staining and enumeration under light microscopy. […] A chemoreversal index (Chemoreversal 50, CR50) is determined from the viability assessment. Using a similar approach, a direct cytotoxicity index (Toxic Dose 50, TD50) is determined by assessment of cell death of cells grown in media alone.
(§2) Cells (ABCB1, Jurkat-DNR or ABCG2 Ig-MXP3) were incubated with the test compound in a 3 order of magnitude concentration range over three and seven day periods in the presence of the inhibitor and chemotherapeutic (ABCB1, 100 nM DNR or ABCG2 30 nM MTX), such that a cell concentration of at least 1×10^5 cells mL^−1 was maintained. Cell viability was determined by trypan blue staining and enumeration under light microscopy. […] A chemoreversal index (Chemoreversal 50, CR50) was determined from the viability assessment. Using a similar approach, a direct cytotoxicity index (Toxic Dose 50, TD50) was determined by assessment of cell death of cells grown in media alone.

Ig-MXP3 cells = test: Direct cytotoxicity (Toxic Dose 50) without chemotherapeutic; assay type: cell-based; conditions: Ig-MXP3 cells, inhibitor without chemotherapeutic
Protocol: as §1, §2

[3] = Aqueous solubility in PBS; assay type: physicochemical; conditions: phosphate buffered saline (PBS), aqueous buffer; PBS pH 7.4, room temperature (23° C.)
Protocol: PBS by definition is 137 mMNaCl, 2.7 mMKCl, 10 mM sodium phosphate dibasic, 2 mM potassium phosphate monobasic and a pH of 7.4.

[4] = Aqueous stability in PBS at room temperature; assay type: physicochemical
Protocol: Aqueous stability was measured at room temperature (23° C.) in PBS (no antioxidants or other protectants and DMSO concentration below 0.1%). The stability of SID 88095709, determined as the percent of compound remaining after 48 hours, was 10%.^64Stability data are depicted as a graph showing the loss of compound with time over a 48 hour period with a minimum of 6 time points and provide the percent remaining compound at end of the 48 hours (FIG. 3, closed circles).
The stability data under these conditions overlain in the FIG. 3 and is also depicted as a graph showing the loss of compound with time over a 48 hour period with a minimum of 6 time points and provide the percent remaining compound at end of the 48 hours (FIG. 3, closed triangles). The addition of acetonitrile appears to have solubilized the compound and provided a more accurate reading of the stability, which is now 100% remaining after 48 hours.

O=C(c1ccoc1)N1CCN(c2cc(-c3ccco3)nc3cc(-c4ccccc4)nn23)CC1 [Compound 1, (4-(5-(furan-2-yl)-2-phenylpyrazolo[1,5-a]pyrimidin-7-yl)piperazin-1-yl)(furan-3-yl)methanone]
tumor size, combination of TPT and inhibitor [1]: dramatically reduced tumor size; also recorded: Significant tumor reduction | tumor size, combination of TPT and inhibitor ([1]; listed as SID 88095709): dramatically reduced tumor size | tumor size, single agent ([1]; 150 nM TPT, 100 nM SID 88095709 or 500 nM SID 85752814 alone): remained the same or increased | tumor size, inhibitor alone ([1]; inhibitor alone (100 nM or 500 nM as printed), Example 3): No reduction in size | EC50 [2]: 550 nM | TD50 ABCG2 (Ig-MXP3 cells): 18.30 µM | TD50 ABCG2 (Ig-MXP3 cells; listed as SID 88095709): 18.3 µM | solubility [3]: 0.51 µg/mL (≈ 1.16 µM) | Aqueous stability, percent of compound remaining after 48 hours ([4]; PBS alone, 23° C., DMSO below 0.1%): 10% | Aqueous stability, percent remaining after 48 hours ([4]; PBS with acetonitrile (50% v/v final)): 100%
